Laboratory results from paper PMC3933301 (Journal of medicinal chemistry, 2013).
Converted amounts (≈) assume the structure as drawn.

What was measured:
[1] = system: Mtb clinical strain NHN382 (isoniazide-resistant); format: cell-based, Mycobacterium tuberculosis
[2] = system: Mtb clinical strain TN587 (isoniazide-resistant); format: cell-based, Mycobacterium tuberculosis

Compound	MIC, Mtb strain NHN382 [1] [µg/mL]	MIC, Mtb strain TN587 [2] [µg/mL]
NNC(=O)c1ccncc1 [INH, isoniazid, reference compound]	0.25 (≈ 1.82 µM)	0.25 (≈ 1.82 µM)
CCCCOC(=O)Nc1cc2nc(C3CCCCC3)[nH]c2cc1N(C)C [Compound 5f, 5-Butyloxycarbonylamino-2-cyclohexyl-6-N,N-dimethylamino-1H-benzo[d]imidazole]		0.13 (≈ 0.363 µM)
